Results from patent US8987312B2, “Alpha-keto heterocycles as FAAH inhibitors” (The Scripps Research Institute, priority 2008, dated 2015).
pIC50, pKi: −log10 of the molar value. Where two headings read alike, the source gives them in different places.

Assays:
[1] = biological target: T1, triacylglycerol hydrolase (TGH) (Mus musculus, UniProt Q8VCT4); experiment: Activity based protein profiling (proteome-wide selectivity screening, FP-Rh), TGH; type: biochemical; settings: Table 4; for pIC50: activity based protein profiling; for TGH selectivity (value in parentheses): ratio TGH IC50 / FAAH IC50 (fold selectivity for FAAH)
T1 construct: with FP-Rh in brain and heart membrane proteome; from tissue; host or cells: brain and heart membrane proteome
T1 sequence (Q8VCT4 19-565): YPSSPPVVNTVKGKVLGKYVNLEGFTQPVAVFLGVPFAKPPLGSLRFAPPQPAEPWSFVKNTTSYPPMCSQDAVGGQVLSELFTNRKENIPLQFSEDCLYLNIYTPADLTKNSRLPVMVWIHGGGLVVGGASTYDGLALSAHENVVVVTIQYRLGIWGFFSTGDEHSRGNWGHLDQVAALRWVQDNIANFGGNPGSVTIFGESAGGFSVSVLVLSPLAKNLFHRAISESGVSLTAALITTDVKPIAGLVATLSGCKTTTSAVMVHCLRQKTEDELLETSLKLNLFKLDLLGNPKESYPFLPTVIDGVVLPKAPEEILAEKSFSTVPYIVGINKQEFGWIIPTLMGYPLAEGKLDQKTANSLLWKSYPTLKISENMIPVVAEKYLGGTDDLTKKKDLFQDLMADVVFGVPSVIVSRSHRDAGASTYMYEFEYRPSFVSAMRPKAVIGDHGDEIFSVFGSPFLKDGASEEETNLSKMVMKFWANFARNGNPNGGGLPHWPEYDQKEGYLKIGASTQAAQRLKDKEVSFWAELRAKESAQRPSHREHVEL
Source text: (§1) Enzyme targets such as FAAH, KIAA1363, and TGH are labeled at the left margin.

[2] = biological target: T2, recombinant human fatty acid amide hydrolase (Homo sapiens, UniProt O00519); experiment: FAAH inhibition enzyme assay, human enzyme (COS-7 lysate); type: biochemical; settings: Table 3
T2 construct: The full-length human FAAH (hFAAH) was expressed in COS-7 cells as described; expressed in transfected cells; host or cells: COS-7
T2 sequence (O00519 1-579): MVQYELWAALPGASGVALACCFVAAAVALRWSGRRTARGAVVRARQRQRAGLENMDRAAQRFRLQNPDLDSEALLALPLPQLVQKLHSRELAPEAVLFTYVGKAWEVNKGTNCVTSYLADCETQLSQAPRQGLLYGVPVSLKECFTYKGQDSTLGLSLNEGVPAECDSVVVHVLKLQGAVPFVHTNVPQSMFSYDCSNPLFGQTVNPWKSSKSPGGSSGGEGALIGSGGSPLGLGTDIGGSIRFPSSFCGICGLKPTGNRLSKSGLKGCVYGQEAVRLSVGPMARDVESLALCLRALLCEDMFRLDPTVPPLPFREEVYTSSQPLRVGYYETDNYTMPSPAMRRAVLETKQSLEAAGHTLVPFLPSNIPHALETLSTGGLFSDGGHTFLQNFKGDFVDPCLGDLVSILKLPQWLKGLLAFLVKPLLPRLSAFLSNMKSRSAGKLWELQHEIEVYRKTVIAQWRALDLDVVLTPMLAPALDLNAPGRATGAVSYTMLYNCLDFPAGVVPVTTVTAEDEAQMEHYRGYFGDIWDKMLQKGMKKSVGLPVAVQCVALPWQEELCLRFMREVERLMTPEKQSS
Source text: (§2) The purified recombinant rFAAH was used in the inhibition assays unless otherwise indicated.
(§3) The ^14C-labeled oleamide (substrate) and oleic acid (product) were extracted with EtOAc and analyzed by TLC.

[3] = biological target: T3, KIAA1363 (Mus musculus, UniProt Q8BLF1); experiment: Activity based protein profiling (proteome-wide selectivity screening, FP-Rh), KIAA1363; type: biochemical; settings: Table 4; for pIC50: activity based protein profiling; for KIAA1363 selectivity (value in parentheses): ratio KIAA1363 IC50 / FAAH IC50 (fold selectivity for FAAH)
T3 construct: with FP-Rh in brain and heart membrane proteome; from tissue; host or cells: brain and heart membrane proteome
T3 sequence (Q8BLF1 1-408): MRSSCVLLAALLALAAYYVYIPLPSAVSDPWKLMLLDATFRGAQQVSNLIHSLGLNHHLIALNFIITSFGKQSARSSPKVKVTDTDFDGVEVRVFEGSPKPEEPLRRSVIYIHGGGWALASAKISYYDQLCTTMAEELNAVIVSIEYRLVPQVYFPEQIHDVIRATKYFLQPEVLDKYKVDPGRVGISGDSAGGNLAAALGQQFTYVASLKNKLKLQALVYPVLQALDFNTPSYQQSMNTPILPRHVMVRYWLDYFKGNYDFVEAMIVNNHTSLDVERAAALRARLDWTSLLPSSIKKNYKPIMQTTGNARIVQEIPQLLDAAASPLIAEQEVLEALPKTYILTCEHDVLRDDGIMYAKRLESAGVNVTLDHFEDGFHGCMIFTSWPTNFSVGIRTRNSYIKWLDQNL
Source text: as §1

[4] = rats; cited from earlier work
[5] = rat; cited from earlier work
[6] = biological target: T4, purified recombinant rat FAAH (Rattus norvegicus, UniProt P97612); experiment: FAAH inhibition enzyme assay (14C-oleamide hydrolysis, Dixon plot), rat enzyme; type: biochemical; settings: for Ki: Table 3, read-out: Ki, μM (rat)
T4 construct: The truncated rat FAAH (rFAAH) was expressed in E. coli and purified as described; made in house; host or cells: Escherichia coli
T4 sequence (P97612 30-579 limits assumed): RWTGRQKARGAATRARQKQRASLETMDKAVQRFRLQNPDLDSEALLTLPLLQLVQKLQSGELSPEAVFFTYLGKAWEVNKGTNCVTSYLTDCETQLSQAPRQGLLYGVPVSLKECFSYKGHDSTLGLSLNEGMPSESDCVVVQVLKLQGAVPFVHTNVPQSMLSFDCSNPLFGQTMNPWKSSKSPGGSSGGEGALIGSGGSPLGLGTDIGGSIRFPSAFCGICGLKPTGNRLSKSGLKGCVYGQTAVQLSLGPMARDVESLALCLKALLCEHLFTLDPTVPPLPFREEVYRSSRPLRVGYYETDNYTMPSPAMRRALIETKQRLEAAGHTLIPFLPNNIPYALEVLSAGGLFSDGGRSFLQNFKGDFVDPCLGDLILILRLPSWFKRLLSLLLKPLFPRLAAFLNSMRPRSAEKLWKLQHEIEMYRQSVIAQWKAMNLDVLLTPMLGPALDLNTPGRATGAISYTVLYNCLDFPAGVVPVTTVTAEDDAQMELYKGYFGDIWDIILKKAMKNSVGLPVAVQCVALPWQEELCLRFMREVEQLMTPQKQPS
Source text: as §2, §3

[7] = biological target: T5, FAAH (Mus musculus, UniProt O08914); experiment: Activity based protein profiling (proteome-wide selectivity screening, FP-Rh), FAAH; type: biochemical; settings: Table 4
T5 construct: with FP-Rh in brain and heart membrane proteome; from tissue; host or cells: brain and heart membrane proteome
T5 sequence (O08914 1-579): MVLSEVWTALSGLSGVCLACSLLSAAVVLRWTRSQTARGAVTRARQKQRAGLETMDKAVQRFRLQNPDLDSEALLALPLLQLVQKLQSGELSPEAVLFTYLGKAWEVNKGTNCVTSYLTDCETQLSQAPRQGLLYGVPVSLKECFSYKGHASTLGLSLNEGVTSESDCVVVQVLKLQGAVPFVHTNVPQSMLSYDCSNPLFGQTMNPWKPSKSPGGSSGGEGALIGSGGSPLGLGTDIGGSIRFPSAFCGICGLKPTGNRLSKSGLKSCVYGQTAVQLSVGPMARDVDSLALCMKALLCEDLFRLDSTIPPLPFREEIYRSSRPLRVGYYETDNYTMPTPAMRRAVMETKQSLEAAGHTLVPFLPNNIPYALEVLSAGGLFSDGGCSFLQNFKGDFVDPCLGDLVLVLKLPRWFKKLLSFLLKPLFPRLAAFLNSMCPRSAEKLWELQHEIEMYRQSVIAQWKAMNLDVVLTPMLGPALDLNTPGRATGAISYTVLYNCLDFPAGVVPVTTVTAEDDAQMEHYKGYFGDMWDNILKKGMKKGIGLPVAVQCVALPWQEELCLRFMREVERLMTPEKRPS
Source text: as §1

[8] = CREAE mice; cited from earlier work
[9] = rats; cited from earlier work; remark: listed apart in the source
[10] = rats; cited from earlier work; remark: listed apart in the source
[11] = rats; cited from earlier work; remark: listed apart in the source
[12] = tested on: FAAH; settings: cited from earlier work
[13] = Table 2, rat FAAH, pH 9 assay conditions, read-out: Ki

| pIC50 [1] | Ki [2] | pIC50 [3] | pKi [6, 13] | Ki ([6]; rat FAAH) | pKi ([6]; Table 4, read-out: FAAH Ki) | pIC50 [7] | TGH selectivity (value in parentheses) [1] | KIAA1363 selectivity (value in parentheses) [3] | Structure (SMILES) | further results |
| --- | --- | --- | --- | --- | --- | --- | --- | --- | --- | --- |
| 6.92 | 0.0055 µM | < 4.00 |  |  |  |  |  |  | O=C(CCCCCCc1ccccc1)c1nnn(-c2ccccn2)n1 [15b, 7-Phenyl-1-(2-(pyridin-2-yl)-2H-tetrazol-5-yl)-heptan-1-one] |  |
|  |  |  |  |  |  |  |  |  | NC(=O)c1cccc(-c2cccc(OC(=O)NC3CCCCC3)c2)c1 [URB-597] | efficacy in model of anxiety [4]: efficacy; analgesic efficacy / activity, hot plate [5]: analgesic efficacy |
| 4.40 | 0.037 µM | < 4.00 |  |  |  |  |  |  | O=C(O)c1cccc(-c2nnc(C(=O)CCCCCCc3ccccc3)o2)n1 [8g] |  |
| 6.40 | 0.016 µM | < 4.00 | 8.96 | 0.0011 µM | 8.96 | 8.15 | 60 | > 14000 | O=C(CCCCCCc1ccccc1)c1noc(-c2ccccn2)n1 [10b, 7-Phenyl-1-(5-(pyridin-2-yl)-1,2,4-oxadiazol-3-yl)-heptan-1-one] |  |
|  |  |  |  |  |  |  |  |  | CCCCCCCCCCCCCCCCS(=O)(=O)F [AM374] | spasticity [8]: significantly reduce spasticity |
|  |  |  |  |  |  |  |  |  | Cc1nc(-c2ccccc2)c(-c2ccccc2)n1CCCCCCNC(=O)Oc1ccccc1F [BMS-1] | analgesic effect [9]: analgesic effect; analgesic effect [10]: analgesic effect |
| < 4.00 | 0.026 µM | < 4.00 |  |  |  | 7.00 | > 1000 | > 1000 | O=C(O)c1cccc(-c2cnc(C(=O)CCCCCCc3ccccc3)o2)n1 [7g] | pKi ([6]; pH=7.4 (physiological pH), read-out: Ki): 7.99; pKi ([6]; pH=8, read-out: Ki): 7.84 |
| 7.60 |  | < 4.00 | 9.00 |  | 9.00 | 7.80 | 1.5 | > 6250 | O=C(CCCCCCc1ccccc1)c1nnco1 [8a, 1-(1,3,4-Oxadiazol-2-yl)-7-phenylheptan-1-one] |  |
|  |  |  |  |  |  |  |  |  | O=C(CCCCCCc1ccccc1)c1ncc(-c2ccccn2)o1 [OL-135] | analgesic activity, tail emersion [11]: analgesic activity; FAAH inhibition (in words) [12]: potent inhibitor; analgesic efficacy / activity, hot plate [5]: analgesic activity |
| 7.40 |  | < 4.00 | 8.52 |  | 8.52 | 8.10 | 5 | > 12500 | COC(=O)c1cccc(-c2nnc(C(=O)CCCCCCc3ccccc3)o2)n1 [8f, Methyl 6-(5-(7-Phenylheptanoyl)-1,3,4-oxadiazol-2-yl)-picolinate] |  |
| < 4.00 | 0.11 µM | < 4.00 | 7.28 | 0.053 µM | 7.28 | 7.15 | > 1400 | > 1400 | O=C(O)c1cccc(-c2nc(C(=O)CCCCCCc3ccccc3)no2)n1 [10g, 6-(3-(7-Phenylheptanoyl)-1,2,4-oxadiazol-5-yl)-picolinic Acid] |  |
| 7.52 | 0.00092 µM | 4.52 | 9.47 | 0.00034 µM | 9.47 | 8.52 | 10 | 10000 | O=C(CCCCCCc1ccccc1)c1nc(-c2ccccn2)no1 [9b, 7-Phenyl-1-(3-(pyridin-2-yl)-1,2,4-oxadiazol-5-yl)-heptan-1-one] |  |
| 5.35 | 0.003 µM | < 4.00 | 9.10 | 0.0008 µM | 9.10 | 7.52 | 150 | > 3300 | O=C(CCCCCCc1ccccc1)c1nnc(-c2ccccn2)s1 [12b, 7-Phenyl-1-(5-(pyridin-2-yl)-1,3,4-thiadiazol-2-yl)-heptan-1-one] |  |
|  | 0.0012 µM | 4.05 | 9.54 | 0.00029 µM | 9.54 |  | 140 | 90000 | O=C(CCCCCCc1ccccc1)c1nnc(-c2ccccn2)o1 [8b, 7-Phenyl-1-(5-(pyridin-2-yl)-1,3,4-oxadiazol-2-yl)-heptan-1-one] |  |
| 6.52 |  | < 4.00 | 7.92 |  | 7.92 | 7.10 | 4 | > 1250 | O=C(CCCCCCc1ccccc1)c1ncc(-c2ccco2)o1 [7c] |  |
